Measured values reported in PubChem BioAssay AID248 (DTP/NCI, 2004).
Values joined by “and” are separate entries in the source; they are usually repeats but may differ in a detail not shown here. Equal entries are not always repeated. Toxic doses and inconclusive results are not listed. Rule as the data show it: active = T/C of 150% or more; inactive = T/C below 125%. Square brackets hold non-standard residues; d marks the D form. Peptide text beside a SMILES is read from it. * marks the point of attachment. ξ: configuration not given here. Cbz = O=C(OCc1ccccc1)*; OBn = c1ccc(CO*)cc1; ξP = O=C(O)C1CCCN1

Tested on: L1210 leukemia ip in BDF1 mice, survival T/C
Experiment: NCI In Vivo Anticancer Drug Screen. Data for tumor model L1210 Leukemia (intraperitoneal) in B6D2F1 (BDF1) mice
Settings: endpoint: mean survival time, higher = longer survival
In short: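 Value reflects the ratio of survival in compound-treated mice to survival in vehicle-treated controls, with both groups carrying the same transplanted tumor.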

[1] = dose: 200.0 mg/kg/injection, schedule: Q01DX009 (ip), vehicle: gum acacia
[2] = dose: 100.0 mg/kg/injection, schedule: Q04DX003 (ip), vehicle: Klucel (hydroxypropylcellulose) (HPC)
[3] = dose: 200.0 mg/kg/injection, schedule: Q04DX003 (ip), vehicle: Klucel (hydroxypropylcellulose) (HPC)
[4] = dose: 400.0 mg/kg/injection, schedule: Q04DX003 (ip), vehicle: Klucel (hydroxypropylcellulose) (HPC)
[5] = dose: 100.0 mg/kg/injection, schedule: Q01DX009 (ip), vehicle: Klucel (hydroxypropylcellulose) (HPC)
[6] = dose: 200.0 mg/kg/injection, schedule: Q01DX009 (ip), vehicle: Klucel (hydroxypropylcellulose) (HPC)
[7] = dose: 400.0 mg/kg/injection, schedule: Q01DX009 (ip), vehicle: Klucel (hydroxypropylcellulose) (HPC)
[8] = dose: 100.0 mg/kg/injection, schedule: Q04DX003 (ip), vehicle: saline
[9] = dose: 200.0 mg/kg/injection, schedule: Q04DX003 (ip), vehicle: saline
[10] = dose: 100.0 mg/kg/injection, schedule: Q01DX001 (ip), vehicle: carboxymethylcellulose (CMC)
[11] = dose: 200.0 mg/kg/injection, schedule: Q01DX001 (ip), vehicle: carboxymethylcellulose (CMC)
[12] = dose: 400.0 mg/kg/injection, schedule: Q01DX001 (ip), vehicle: carboxymethylcellulose (CMC)
[13] = dose: 25.0 mg/kg/injection, schedule: Q04DX002 (ip), vehicle: saline with Tween-80
[14] = dose: 50.0 mg/kg/injection, schedule: Q04DX002 (ip), vehicle: saline with Tween-80

Measured: T/C

O=C(Nc1ccc(Nc2ccccc2)cc1)Nc1cccc(C(F)(F)F)c1
inactive: dose: 100.0 mg/kg/injection, schedule: Q01DX001 (ip), vehicle: gum acacia 94 % of control and 97 % of control | dose: 100.0 mg/kg/injection, schedule: Q01DX009 (ip), vehicle: gum acacia 94 % of control and 98 % of control | dose: 100.0 mg/kg/injection, schedule: Q04DX002 (ip), vehicle: gum acacia 95 % of control | dose: 100.0 mg/kg/injection, schedule: Q04DX003 (ip), vehicle: gum acacia 100 % of control and 101 % of control | dose: 200.0 mg/kg/injection, schedule: Q01DX001 (ip), vehicle: gum acacia 97 % of control and 90 % of control | [1] 98 % of control and 103 % of control | dose: 200.0 mg/kg/injection, schedule: Q04DX002 (ip), vehicle: gum acacia 93 % of control and 86 % of control | dose: 200.0 mg/kg/injection, schedule: Q04DX003 (ip), vehicle: gum acacia 94 % of control | dose: 400.0 mg/kg/injection, schedule: Q01DX001 (ip), vehicle: gum acacia 103 % of control and 87 % of control | dose: 400.0 mg/kg/injection, schedule: Q01DX009 (ip), vehicle: gum acacia 97 % of control and 91 % of control | dose: 400.0 mg/kg/injection, schedule: Q04DX002 (ip), vehicle: gum acacia 100 % of control | dose: 400.0 mg/kg/injection, schedule: Q04DX003 (ip), vehicle: gum acacia 95 % of control and 96 % of control

O=C(CNC(=O)OCc1ccccc1)NCC(=O)N1CCCC1C(=O)OCc1ccccc1 (stereo not drawn) (Cbz-Gly-Gly-[ξP]-OBn)
inactive: [2] 101 % of control | [3] 103 % of control | [4] 100 % of control

COc1ccc(C(=O)N/N=C/c2ccc(Cl)cc2Cl)cc1
inactive: [5] 102 % of control | [6] 94 % of control | [7] 91 % of control

O=C1CCCO1
inactive: [8] 92 % of control | [9] 100 % of control | dose: 400.0 mg/kg/injection, schedule: Q04DX003 (ip), vehicle: saline 94 % of control

CCCCCCC(=O)C(O)C(O)C(=O)CCCCCCCC(=O)O (stereo not drawn)
inactive: dose: 100.0 mg/kg/injection, schedule: Q04DX002 (ip), vehicle: other 91 % of control | dose: 200.0 mg/kg/injection, schedule: Q04DX002 (ip), vehicle: other 98 % of control | dose: 400.0 mg/kg/injection, schedule: Q04DX002 (ip), vehicle: other 102 % of control

c1ccc2c(c1)[nH]c1nc3ccncc3nc12
inactive: [8] 103 % of control | [9] 94 % of control

COC(=O)c1cccc(O)c1
inactive: dose: 100.0 mg/kg/injection, schedule: Q01DX001 (ip), vehicle: saline with Tween-80 94 % of control | dose: 200.0 mg/kg/injection, schedule: Q01DX001 (ip), vehicle: saline with Tween-80 91 % of control | dose: 400.0 mg/kg/injection, schedule: Q01DX001 (ip), vehicle: saline with Tween-80 98 % of control

CCOC(=O)CCCN1CCC=C(C#N)C1
inactive: dose: 75.0 mg/kg/injection, schedule: Q01DX001 (ip), vehicle: saline 102 % of control | dose: 300.0 mg/kg/injection, schedule: Q01DX001 (ip), vehicle: saline 107 % of control

CC(=O)OC1(C(C)=O)CCC2C3CC(C)(O)C4=CC(=O)CCC4(C)C3CCC21C (stereo not drawn)
inactive: dose: 25.0 mg/kg/injection, schedule: Q01DX009 (ip), vehicle: Klucel (hydroxypropylcellulose) (HPC) 97 % of control | dose: 50.0 mg/kg/injection, schedule: Q01DX009 (ip), vehicle: Klucel (hydroxypropylcellulose) (HPC) 95 % of control | [5] 103 % of control | [6] 101 % of control

S=C(S)N1CCN(C(=S)S)CC1
inactive: dose: 25.0 mg/kg/injection, schedule: Q01DX009 (ip), vehicle: saline 108 % of control | dose: 50.0 mg/kg/injection, schedule: Q01DX009 (ip), vehicle: saline 103 % of control | dose: 100.0 mg/kg/injection, schedule: Q01DX009 (ip), vehicle: saline 92 % of control and 102 % of control | [8] 99 % of control | [9] 97 % of control

CCCNC(=O)NO
inactive: [10] 103 % of control | dose: 150.0 mg/kg/injection, schedule: Q01DX009 (ip), vehicle: other 105 % of control | [11] 100 % of control | [12] 105 % of control

Fc1ccc(C(=S)Nc2ccccc2)cc1
inactive: dose: 100.0 mg/kg/injection, schedule: Q01DX001 (ip), vehicle: acetone 104 % of control | dose: 200.0 mg/kg/injection, schedule: Q01DX001 (ip), vehicle: acetone 98 % of control | dose: 400.0 mg/kg/injection, schedule: Q01DX001 (ip), vehicle: acetone 92 % of control

CCOC(=O)C(=O)c1cnc2c(OC)nn(O)cc1-2
inactive: dose: 12.5 mg/kg/injection, schedule: Q04DX002 (ip), vehicle: saline with Tween-80 102 % of control | [13] 109 % of control | [14] 102 % of control

Cc1nc2cc(Cl)cc([N+](=O)[O-])c2nc1C
inactive: [5] 91 % of control | [6] 93 % of control | [7] 91 % of control

CCOC(=O)c1cnc(SC)nc1Oc1ccccc1F
inactive: [5] 105 % of control | [2] 96 % of control | [6] 96 % of control | [3] 119 % of control | [7] 97 % of control | [4] 91 % of control

CCCCOP(=O)(OCCCC)N1CCCCC1
inactive: [13] 94 % of control | [14] 108 % of control | dose: 100.0 mg/kg/injection, schedule: Q04DX002 (ip), vehicle: saline with Tween-80 91 % of control

Cc1ccc(NC(=O)CBr)cc1
inactive: dose: 50.0 mg/kg/injection, schedule: Q01DX001 (ip), vehicle: other 96 % of control

CCN(CC)CCCC(C)Nc1cc(N)nc2nc(-c3ccc(Cl)cc3)c(-c3ccc(Cl)cc3)nc12 (stereo not drawn)
inactive: dose: 37.5 mg/kg/injection, schedule: Q01DX009 (ip), vehicle: Klucel (hydroxypropylcellulose) (HPC) 95 % of control | dose: 37.5 mg/kg/injection, schedule: Q04DX003 (ip), vehicle: Klucel (hydroxypropylcellulose) (HPC) 98 % of control | dose: 75.0 mg/kg/injection, schedule: Q01DX001 (ip), vehicle: other 97 % of control | dose: 75.0 mg/kg/injection, schedule: Q01DX009 (ip), vehicle: Klucel (hydroxypropylcellulose) (HPC) 90 % of control | dose: 75.0 mg/kg/injection, schedule: Q04DX003 (ip), vehicle: Klucel (hydroxypropylcellulose) (HPC) 102 % of control | dose: 150.0 mg/kg/injection, schedule: Q04DX003 (ip), vehicle: Klucel (hydroxypropylcellulose) (HPC) 93 % of control

COc1ccc([N+](=O)[O-])cc1NC(=O)c1ccc2c(c1)C(=O)OC2=O
inactive: dose: 6.25 mg/kg/injection, schedule: Q01DX009 (ip), vehicle: gum acacia 93 % of control | dose: 12.5 mg/kg/injection, schedule: Q01DX009 (ip), vehicle: gum acacia 88 % of control | dose: 25.0 mg/kg/injection, schedule: Q01DX009 (ip), vehicle: gum acacia 87 % of control | dose: 50.0 mg/kg/injection, schedule: Q01DX009 (ip), vehicle: gum acacia 86 % of control | [1] 88 % of control

C=CCCN(c1ccc(C(=O)OCC)cc1)S(=O)(=O)c1ccc(C)cc1
inactive: dose: 50.0 mg/kg/injection, schedule: Q01DX001 (ip), vehicle: carboxymethylcellulose (CMC) 102 % of control | [10] 100 % of control | [11] 107 % of control | [12] 96 % of control
